Reference: PMC6155683, “Pharmacokinetics Studies of 12 Alkaloids in Rat Plasma after Oral Administration of Zuojin and Fan-Zuojin Formulas” (Molecules : A Journal of Synthetic Chemistry and Natural …, 2017)
Read-outs that look alike come from different tables or passages of the source.

Legend:
[1] = PK study of the 12 alkaloids in rat plasma after oral administration of ZJ and FZJ extract (LC–MS/MS); type: in vivo; conditions: rat plasma; for AUC(0-t) / AUC(0-inf) / Cmax / MRT last / MRT inf / half-life / Csec (drug concentration of the secondary peak in C–T curve): mean ± SD, n = 6; for AUC(0-t): read-out: AUC0→t; for AUC(0-inf): read-out: AUC0→∞; for Cmax: read-out: Cmax; for MRT last: read-out: MRT0→t (converted); for MRT inf: read-out: MRT0→∞ (converted); for half-life: read-out: t1/2; for Tmax: read-out: Tmax (converted)
Method: The time schedule included 15 time-points and six rats were sampled at each time-point. All the rats were orally administered with ZJ extract (suspended in water) at a dose of 3.38 g/kg body weight (dosages of the 12 alkaloids were shown in Table S4), equivalent to crude drug dose of 12 g/kg body weight. Blood samples were collected from the suborbital vein of the rats at 10, 20, 30, 60, 90, 120, 180, 240, 300, 330, 360, 480, 720, 1440, 2160 min after administration, and centrifuged immediately at 5000 rpm for 10 min. The plasma samples were stored at −20 °C until analysis.
Similarly, the time schedule of other rats included 15 time-points and six rats were orally administered with FZJ extract at a dose of 3.76 g/kg body weight (also equivalent to crude drug dose of 12 g/kg body weight, Table S4). Blood samples were collected and treated as mentioned above in the PK study of ZJ extract.
PK parameters of the 12 alkaloids including AUC0→t, AUC0→∞, mean retention time (MRT0→t, MRT0→∞), and elimination half-life (t1/2) were calculated with non-compartmental method by DAS 2.0 software (Mathematical Pharmacology Professional Committee of China, Shanghai, China). Maximum plasma drug concentration (Cmax) and time to reach the maximum plasma drug concentration (Tmax) were observed directly from the detected C–T data. The results were expressed as arithmetic mean ± standard deviation (SD).

[2] = Dose modified systemic exposure (AUC0→∞/D, Cmax/D)
Method: Because the alkaloids content in ZJ and FZJ were no longer linear with the proportion of CR and EF after extraction process, AUC0→∞/D (ratio of AUC0→∞ and dose) and Cmax/D (ratio of Cmax and dose) were calculated to estimate the dose modified systemic exposure levels of the 12 alkaloids (Table 3). […] Physicochemical properties of these alkaloids had been calculated in silico to predict their human colon adenocarcinoma cell (Caco-2) permeability according to the three-property based rule (3PRule). Polar surface area (PSA), logarithm of the n-octanol/water distribution coefficient (LogD), molecular weight (MW), hydrogen bond donors (HBD), hydrogen bond acceptors (HBA), number of free rotatable bonds (NRB) and molar solubility (S) of the alkaloids were retrieved from SciFinder® (American Chemical Society).

[3] = Stability of analytes in rat plasma under storage conditions; type: physicochemical; conditions: n = 6; for Stability RE, 3 freeze-thaw cycles / Stability RE, 30 days at −20 °C: rat plasma; for Stability RE, processed samples' stability: room temperature 24 h
Method: The stabilities of analytes in plasma were assessed by analyzing the QC samples at three concentration levels under the following storage conditions: after three freeze (−20 °C)-thaw (room temperature) cycles; stored at −20 °C for 30 days, and comparing the results with those of freshly prepared QC samples. Stabilities of the processed samples at room temperature for 24 h were also assessed.

[4] = Two-compartment model fitting of C–T curves (DAS 2.0); type: in vivo, rat
Description: Double peaks in C–T curves were observed repeatedly in the PK study of ZJ and related TCM prescriptions, but explanations to the phenomenon were still ambiguous. Generally, possible reasons for the double peak phenomenon could be summarized as follows: (a) enterohepatic circulation; […] (c) irregular pattern of gastric emptying. […] Moreover, Tmax of the alkaloids after administration of ZJ extract were deferred from that of FZJ administration. […] It probably play a major role in the double peak phenomenon, since the GI motility can affect the drug absorption.

Compound	AUC(0-t) ([1]; 3.38 g/kg, oral ZJ extract) [ng·h/mL]	AUC(0-inf) ([1]; 3.38 g/kg, oral ZJ extract) [ng·h/mL]	Cmax ([1]; 3.38 g/kg, oral ZJ extract) [ng/mL]	MRT last ([1]; 3.38 g/kg, oral ZJ extract) [h]	MRT inf ([1]; 3.38 g/kg, oral ZJ extract) [h]	half-life ([1]; 3.38 g/kg, oral ZJ extract) [h]	Tmax ([1]; 3.38 g/kg, oral ZJ extract) [h]	AUC(0-t) ([1]; 3.76 g/kg, oral FZJ extract) [ng·h/mL]	AUC(0-inf) ([1]; 3.76 g/kg, oral FZJ extract) [ng·h/mL]	Cmax ([1]; 3.76 g/kg, oral FZJ extract) [ng/mL]	MRT last ([1]; 3.76 g/kg, oral FZJ extract) [h]	MRT inf ([1]; 3.76 g/kg, oral FZJ extract) [h]	half-life ([1]; 3.76 g/kg, oral FZJ extract) [h]	Tmax ([1]; 3.76 g/kg, oral FZJ extract) [h]	Tsec (time of the secondary peak in C–T curve) ([1]; oral ZJ extract) [min]	Csec (drug concentration of the secondary peak in C–T curve) ([1]; oral ZJ extract) [ng/mL]	AUC0→∞/D (ratio of AUC0→∞ and dose) ([2]; oral FZJ extract)	Cmax/D (ratio of Cmax and dose) ([2]; oral FZJ extract)	AUC0→∞/D (ratio of AUC0→∞ and dose) ([2]; oral ZJ extract)	Cmax/D (ratio of Cmax and dose) ([2]; oral ZJ extract)	other results
COc1cc2c(cc1OC)-c1cc3ccc4c(c3c[n+]1CC2)OCO4 [epiberberine]	68.5 ± 15.9	69.6 ± 15.5	13.7 ± 7.05	10.8	11.6	6.11 ± 1.7	5	10.1 ± 1.09	11.4 ± 1.27	4.82 ± 1.97	3.89	5.26	3.92 ± 1.69	3	90	5.51 ± 2.17	1.91	0.81	0.62	0.12	Stability RE, 3 freeze-thaw cycles ([3]; high QC concentration): −12.84%; Stability RE, 30 days at −20 °C ([3]; high QC concentration): −6.2%; Stability RE, 3 freeze-thaw cycles ([3]; low QC concentration): −3.64%; Stability RE, 30 days at −20 °C ([3]; low QC concentration): 13.92%; Stability RE, 3 freeze-thaw cycles ([3]; medium QC concentration): −6.12%; Stability RE, 30 days at −20 °C ([3]; medium QC concentration): −13.86%; Stability RE, processed samples' stability ([3]; high QC concentration): −10.77%; Stability RE, processed samples' stability ([3]; low QC concentration): 2.78%; Stability RE, processed samples' stability ([3]; medium QC concentration): −8.85%
CCCCC=CCCCCCCCc1cc(=O)c2ccccc2n1C [evocarpine]	55.6 ± 12.4	59 ± 13.3	24.2 ± 12.9	4.19	6.52	8.99 ± 6.39	1	17.8 ± 3.99	19.6 ± 4.79	4.07 ± 0.44	7.04	9.3	6.91 ± 1	0.5	240	7.36 ± 4.89	13.16	2.74	35.17	14.42	AIC (Akaike's information criterion method), two-compartment model fitting ([4]; oral FZJ extract): 27.61 ± 10.527; r^2 (correlation coefficient method), two-compartment model fitting ([4]; oral FZJ extract): 0.740 ± 0.167; AIC (Akaike's information criterion method), two-compartment model fitting ([4]; oral ZJ extract): 78.232 ± 11.393; r^2 (correlation coefficient method), two-compartment model fitting ([4]; oral ZJ extract): 0.734 ± 0.201; Stability RE, 3 freeze-thaw cycles ([3]; high QC concentration): 7.91%; Stability RE, 30 days at −20 °C ([3]; high QC concentration): 6.12%; Stability RE, 3 freeze-thaw cycles ([3]; low QC concentration): −19.16%; Stability RE, 30 days at −20 °C ([3]; low QC concentration): 8.28%; Stability RE, 3 freeze-thaw cycles ([3]; medium QC concentration): 3.44%; Stability RE, 30 days at −20 °C ([3]; medium QC concentration): −14.67%; Stability RE, processed samples' stability ([3]; high QC concentration): 3.83%; Stability RE, processed samples' stability ([3]; low QC concentration): 14.05%; Stability RE, processed samples' stability ([3]; medium QC concentration): −14.47%
O=C1NCCc2cc3c(cc21)OCO3 [noroxyhydrastinine]	133 ± 18.5	140 ± 17.8	29.6 ± 15.2	8.82	11	10.7 ± 2.82	1.5	4.95 ± 0.65	5.37 ± 0.73	3.17 ± 1	3.03	5.25	4.06 ± 2.93	0.5	300	16.29 ± 8.38	268.50	158.50	1687.47	357.11	AIC (Akaike's information criterion method), two-compartment model fitting ([4]; oral FZJ extract): 16.505 ± 12.486; r^2 (correlation coefficient method), two-compartment model fitting ([4]; oral FZJ extract): 0.802 ± 0.128; AIC (Akaike's information criterion method), two-compartment model fitting ([4]; oral ZJ extract): 118.137 ± 17.623; r^2 (correlation coefficient method), two-compartment model fitting ([4]; oral ZJ extract): 0.313 ± 0.350; Stability RE, 3 freeze-thaw cycles ([3]; high QC concentration): −9.82%; Stability RE, 30 days at −20 °C ([3]; high QC concentration): −12.1%; Stability RE, 3 freeze-thaw cycles ([3]; low QC concentration): −14.7%; Stability RE, 30 days at −20 °C ([3]; low QC concentration): −8.89%; Stability RE, 3 freeze-thaw cycles ([3]; medium QC concentration): 11.57%; Stability RE, 30 days at −20 °C ([3]; medium QC concentration): −2.75%; Stability RE, processed samples' stability ([3]; high QC concentration): −12.23%; Stability RE, processed samples' stability ([3]; low QC concentration): −8.14%; Stability RE, processed samples' stability ([3]; medium QC concentration): −0.19%
